Patent publication EP0084756A1, “Trisubstituted oxaza compounds” (CIBA-GEIGY AG, priority 1982, dated 1983)
≈ marks a conversion by molar mass, not a printed value.

Test system: mit Crotonöl induzierten Rattenohroedems
Experiment: Croton oil-induced rat ear oedema, method of Tonelli and Thibault, local application
Assay type: in vivo, Normalratte
Conditions: inhibition of croton oil-induced rat ear oedema in the normal rat
Method: Diese Eigenschaft lässt sich beispielsweise nach der von G. Tonelli, L. Thibault, Endocrinology 77, 625 (1965) entwickelten Methode durch Hemmung des mit Crotonöl induzierten Rattenohroedems bei der Normalratte im Dosisbereich von etwa 1 bis etwa 100 mg/ml nachweisen.

With `CCOC(=O)Cc1nc(-c2ccccc2)c(-c2cccnc2)[nH]1` [2-[4-Phenyl-5-(3-pyridyl)-imidazol-2-yl]-essigsäureethylester] the ED50-Wert was 17 mg/mL (≈ 55.3 mM).
